Test [1] relates to plasma renin activity. As to the kind of experiment: Lowering of plasma renin activity in normal conscious rats. It counts as in vivo, male Wistar rats. Particulars: single 25 mg/kg oral dose, 6 rats. How it is done: Compounds were tested for their ability to lower plasma renin activity of conscious, male Wistar rats (180-200 g, Charles River Labs.). Test agents were compounded in a mortar and pestle with 3% preboiled starch suspension. Rats were dosed orally by gavage with 25 mg/kg test agent in a dose volume of 2 ml/kg. At time zero and 1/3, 1, 3 and 6 hours relative to dosing, rats were sacrificed by decapitation and the first 3 seconds of blood collected in two chilled Vacutainer® tubes (Becton-Dickinson, Rutherford, N.J.) containing 40 μl of 150 mg/ml tripotassium EDTA. Plasma fractions, obtained by centrifugation for 20 minutes at 4° C. and 3000 G, were incubated (one of each pair at 37° C., the other at 4° C.) at pH 6.8 in 50 mM phosphate buffer to produce angiotensin I. The incubates contained peptidase inhibitors to prevent angiotensin I degradation and the buffer contained one mg/ml lysozyme (Sigma Grade III) used as an antiabsorbant. The incubates were diluted 20 fold in cold Tris buffer (pH adjusted to 7.4 with glacial acetic acid) also containing one mg/ml lysozyme, and then frozen. Diluted incubates were assayed within 3 days for angiotensin I content by radioimmunoassay according to a modification of the method of Haber, et al., J. Clin. Endocrin., 29, 1349-1355 (1969). Renin activity is calculated as the rate of production of angiotensin I (nanograms of angiotensin I/ml plasma/hour at 37° C.) less controls (rate at 4° C.).

The subject of test [2] is cardiac contractility in anesthetized dogs. As to the kind of experiment: Effect on cardiac contractility in anesthetized dogs, intravenous. Type of test: in vivo, dog. To be noted: intravenous administration; same effect as in isolated rat heart (Table IV).
In test [3] the test system is plasma renin activity. Briefly: Inhibition of evoked (drug-induced) elevation of plasma renin activity in conscious rats. Type of test: in vivo, male Wistar rats. To be noted: Rattus norvegicus, 30 min before provocative treatment. How it is done:
Inhibition of evoked increase of plasma renin activity was determined by the following test.
Compounds were tested for their ability to prevent drug-induced elevation of plasma renin activity (PRA) in concious, male Wistar rats (180-200 g, Charles River Lab.). PRA elevation was induced by a combined oral provacative treatment (C) of hydrochlorothiazide (10 mg/kg) and 1-(3-benzoyl-3-mercapto-2-methylpropionyl)-L-proline, acetate (U.S. Pat. No. 4,226,775) (one mg/kg), prepared by compounding in a mortar and pestle with preboiled 3% starch suspension. This treatment provided the daily maximum PRA. The daily minimum PRA was obtained from rats given oral starch suspension (S) alone. The magnitude of drug effect on PRA elevation was ascertained from rats pretreated orally with test agent (D), at the indicated doses, 30 minutes prior to administration of provacative treatment (C). The test agent was also compounded in preboiled 3% starch suspension. The dose volumes for both pretreatment and provocative treatment were 2 ml/kg. One hour after provocative treatment the rats were sacrificed by decapitation and the first 3 seconds of blood collected in two chilled Vacutainer® tubes (Becton-Dickinson, Rutherford, N.J.) containing 40 μl of 150 mg/ml tripotassium EDTA. The plasma fractions, obtained by centrifugation for 20 minutes at 4° C. and 3000 G, were incubated (one of each pair at 37° C., the other at 4° C.) at pH 6.8 in 50 mM phosphate buffer to produce angiotensin I. The incubates contained peptidase inhibitors to prevent angiotensin I degradation and the incubation buffer contained one mg/ml lysozyme (Sigma Grade III) used as an antiabsorbant. The incubates were diluted 20 fold in cold 100 mM Tris buffer (pH adjusted to 7.4 with glacial acetic acid) also containing one mg/ml lysozyme, and then frozen. Diluted incubates were assayed within 3 days for angiotensin I content by radioimmunoassay according to a modification of the method of Haber, et al., J. Clin. Endocrin., 29, 1349-1355 (1969).
PRA is calculated as follows:
PRA(ng AI/hour/ml plasma)=PRA 37° C.-PRA 4° C.
Percent inhibition of PRA elevation is calculated as follows: [formula]

Another test deals with isolated rat hearts. As to the kind of experiment: Cardiodynamic effects in the isolated perfused rat heart preparation. Particulars: for activation at 1 µg/mL / activation at 4 µg/mL / activation at 8 µg/mL: Rattus norvegicus; for HR (mean % change): rate of cardiac contraction. How it is done: The effect of (triphenylphospharnylidene)carbamic acid, ethyl ester on cardiac contractility was determined by the following test.
Isolated rat hearts were prepared and perfused essentially as described by Neely and Rovetto, Techniques for perfusing isolated rat hearts., in Methods of Enzymology, 24, part D, 43-60 (1975), J. G. Hardman and B. W. O'Malley (eds.), Academic Press, New York, N.Y. The hearts were cooled in ice cold saline and transferred to a Langendorff apparatus and perfused in a retrograde fashion with oxygenated Krebs-Henseleit buffer at 37° C. A 2-0 silk thread was secured to the left ventricular apex and run via pulleys to a force displacement transducer (Grass Instrument Co., model FT03C). Force of contraction (F), the first derivative of force with respect to time (dF/dt), and rate of cardiac contraction (HR) were monitored on a polygraph recorder (Grass Instrument Co., model 7D).
The perfusion medium was a modified Krebs-Henseleit buffer of the following composition:
This medium was equilibrated with 95% oxygen:5% carbon dioxide at 37° C.
(Triphenylphosphoranylidene)carbamic acid, ethyl ester was dissolved in absolute ethanol at a concentration of 10 mg/ml and then diluted with Krebs-Henseleit buffer to the required stock concentration. The stock solution was infused at a constant rate by a syringe pump into the flow of buffer presented to the isolated heart at a rate necessary to achieve the desired final concentration.

In test [4] the test system is spontaneously hypertensive rats (SHR). Briefly: Diuretic activity in spontaneously hypertensive rats. Type of test: in vivo, male spontaneously hypertensive rats (Okamoto strain). To be noted: 100 mg/kg by gavage with 0.9% sodium chloride loading 25 ml/kg; 0-5 hour urine. In short, it runs like this:
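Male Okamoto SHR (about 300 g, 16 weeks old) given test compound by gavage at 100 mg/kg, suspended in 3% preboiled starch, with 0.9% NaCl load at 25 ml/kg at zero hour. Urine collected 0–5 h in metabolism cages. Urinary sodium and potassium reported as mEq excreted.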

Where two headings read alike, the source gives them in different places.

In the case of `CCOC(=O)N=P(c1ccccc1)(c1ccccc1)c1ccccc1` [(Triphenylphosphoranylidene)carbamic acid, ethyl ester], the “% Lowering of plasma renin activity” value in the test on plasma renin activity [1] (0 hours after dose) stood at 0%; in the test on plasma renin activity [1] (1/3 hour after dose) it was 38%; with plasma renin activity [1] (1 hour after dose), 74%; with plasma renin activity [1] (3 hours after dose), 59%; with plasma renin activity [1] (6 hours after dose) it was 40%. In addition, in test [2], the “effect on cardiac contractility in anesthetized dogs” value was “The same effect has been achieved”. This molecule showed an inhibition in vivo at 3 mg/kg with plasma renin activity [3] (3 mg/kg oral) of 22%. Moreover, in the test on plasma renin activity [3] (5 mg/kg oral), testing at 5 mg/kg gave an inhibition in vivo of 29%. The molecule further displayed an inhibition in vivo at 7 mg/kg in the test on plasma renin activity [3] (7 mg/kg oral) of 46%. Besides, at 10 mg/kg the inhibition in vivo in the test with plasma renin activity [3] (10 mg/kg oral) was 81%. Besides, 15 mg/kg produced 79% inhibition in vivo in the test with plasma renin activity [3] (15 mg/kg oral). In the test on plasma renin activity [3] (25 mg/kg oral), the inhibition in vivo at 25 mg/kg stood at 80%. In addition, the activation at 1 µg/mL with isolated rat hearts (final drug concentration 1 mg/liter, 7 hearts, read-out: Concentration Force (g) (mean % change)) stood at 5%; with isolated rat hearts (final drug concentration 1 mg/liter, 7 hearts, read-out: dF/dt (g/sec) (mean % change)) it was 6%. In addition, the activation at 4 µg/mL in the test on isolated rat hearts (final drug concentration 4 mg/liter, 6 hearts, read-out: Concentration Force (g) (mean % change)) worked out at 18%; in the test with isolated rat hearts (final drug concentration 4 mg/liter, 6 hearts, read-out: dF/dt (g/sec) (mean % change)) it was 16%. The activation at 8 µg/mL in the test with isolated rat hearts (final drug concentration 8 mg/liter, 5 hearts, read-out: Concentration Force (g) (mean % change)) turned out to be 24%; with isolated rat hearts (final drug concentration 8 mg/liter, 5 hearts, read-out: dF/dt (g/sec) (mean % change)) it was 21%. For the same molecule, the “HR (mean % change)” value in the test on isolated rat hearts (final drug concentration 1 mg/liter, 7 hearts) is recorded as -3 mean % change; in the test with isolated rat hearts (final drug concentration 4 mg/liter, 6 hearts), -2 mean % change; in the test with isolated rat hearts (final drug concentration 8 mg/liter, 5 hearts) it was -2 mean % change. For the same molecule, in test [4], the “Potassium (urinary excretion)” value came to 0.50 mEQ/5 Hours. For the same molecule, the “Sodium (urinary excretion)” value in test [4] is 1.86 mEQ/5 Hours. Also, in test [4], the “Volume (urine)” value amounted to 15.5 mL.

(Values after patent US4767749A, “Ester of (triarylphosphoranylidene)carbamic acid having diuretic and ability to lower plasma renin properties” (American Cyanamid Company, priority 1986, dated 1988).)
